The source of these data is patent US10034886B2, “GLP-1 receptor modulators” (Celgene International II SÀRL, priority 2014, dated 2018).

By EC50 is commonly meant the concentration at which the effect is half-maximal.

The structures appear in SMILES notation. Where two headings read alike, the source gives them in different places.

The target in this assay is T1, GLP-1R (Homo sapiens, UniProt P43220).
T1 construct: host or cells: GLP-1R CRE-bla CHO-K1 cells
Kind of assay: EC20 GLP-1(9-36) PAM cAMP assay: dose response of compound in the presence of fixed concentration of GLP-1(9-36). The note with it: GLP-1R CRE-bla CHO-K1 cells, read-out: EC20 GLP-1(9-36) PAM EC50. The assay is classed as cell-based. Summed up:
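GLP-1R CRE-bla CHO-K1 cells treated 30 min at 37 °C with 12-point compound dose response plus fixed EC20 GLP-1(9-36), with IBMX, in HBSS/HEPES/0.1% BSA pH 7.4. Total cAMP measured by luminescent detection against standard curve; EC50 and Emax from non-linear regression.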
(In general: Changes in cAMP serve as a functional read-out for many G protein-coupled receptors.)

The mark [1] stands for this setting: dose response of compound in presence of fixed concentration of GLP-1(9-36).
Setting [2] is: compound dose response with fixed concentration of GLP-1(9-36).

T1 sequence (P43220 24-463): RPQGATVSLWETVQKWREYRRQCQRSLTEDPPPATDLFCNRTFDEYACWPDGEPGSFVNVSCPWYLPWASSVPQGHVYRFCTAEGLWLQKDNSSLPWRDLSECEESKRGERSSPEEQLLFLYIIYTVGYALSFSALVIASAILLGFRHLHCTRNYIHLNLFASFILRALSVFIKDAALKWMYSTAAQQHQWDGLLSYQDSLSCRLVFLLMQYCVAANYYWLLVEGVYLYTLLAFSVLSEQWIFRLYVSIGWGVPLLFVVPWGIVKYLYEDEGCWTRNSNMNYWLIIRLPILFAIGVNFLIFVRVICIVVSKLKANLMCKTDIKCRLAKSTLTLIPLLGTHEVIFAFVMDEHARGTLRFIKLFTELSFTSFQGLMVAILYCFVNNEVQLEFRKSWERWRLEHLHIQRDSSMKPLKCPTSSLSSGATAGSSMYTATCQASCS
T1 sequence (P01275 100-127 partner limits assumed): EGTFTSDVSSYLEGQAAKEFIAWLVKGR

Regarding `CCCCCCCOc1ccc(-c2cnc(-c3ccc(C[C@H](NC(=O)c4ccc(C(C)(C)C)s4)C(=O)N[C@@H](c4n[nH]c(=S)o4)[C@@H](C)O)cc3)nc2)cc1` [Compound 895], the 50% effective concentration (EC50) under setting [1] is under 800 nM.

For the molecule `CCCCCCCOc1ccc(-c2cnc(-c3ccc(C[C@H](NC(=O)c4ccc(C(C)(C)C)s4)C(=O)NC(CCS(C)(=O)=O)C(=O)O)cc3)nc2)cc1` (stereo partly shown) [Compound 597], under setting [1], the EC50 is under 800 nM.

Regarding `CCCCCCCOc1ccc(-c2cnc(-c3ccc(C[C@H](NC(=O)c4ccc(C(C)(C)C)s4)C(=O)N4CC[C@@H]4C(=O)O)cc3)nc2)cc1` [Compound 669], the EC50 under setting [1] was 800 to 2500 nM.

For the molecule `CCCCCCCOc1ccc(-c2cnc(-c3ccc(C[C@H](NC(=O)c4ccc(C(C)(C)C)s4)C(=O)N4CCC[C@H]4C(=O)NS(C)(=O)=O)cc3)nc2)cc1` [Compound 495], under setting [1], the EC50 is under 800 nM.

In the case of `CCCCCCCOc1ccc(-c2cnc(-c3ccc(C[C@H](NC(=O)c4ccc(C(C)(C)C)s4)C(=O)N4C[C@H](O)C[C@H]4C(=O)O)cc3)nc2)cc1` [Compound 612], the concentration for a half-maximal effect (EC50) under setting [1] was under 800 nM.

Take `CCCCCCCOc1ccc(-c2cnc(-c3ccc(C[C@H](NC(=O)c4ccc(C(C)(C)C)cc4)C(=O)N4CC[C@@H](C(=O)O)C4)cc3)nc2)cc1` [Compound 588]: the EC50 under setting [1] lay in the range of 800 to 2500 nM.

As for `CCC[C@H]1CC[C@H](C2CCN(c3cnc(-c4ccc(C[C@H](NC(=O)c5cc6cc(OC)ccc6[nH]5)C(=O)N5CC(C(=O)O)C5)cc4)nc3)CC2)CC1` [Compound 1525], the 50% effective concentration (EC50) under setting [2] is under 800 nM.

`C[C@@H](NC(=O)[C@H](Cc1ccc(-c2ncc(-c3ccc(SC4CC4)cc3)cn2)cc1)NC(=O)c1ccc(C(C)(C)C)s1)C(=O)O` [Compound 1301]: under setting [2], the concentration giving a half-maximal response (EC50) fell in the range of 5000 to 10000 nM.

As to `CC(C)CCCOc1ccc(-c2cnc(-c3ccc(C[C@H](NC(=O)Cc4csc(C(C)(C)C)n4)C(=O)N4CC(C(=O)O)C4)cc3)nc2)cc1` [Compound 1244], the concentration giving a half-maximal response (EC50) under setting [2] fell in the range of 2500 to 5000 nM.

Consider `CC(C)(C)c1ccc(C(=O)N[C@@H](Cc2ccc(-c3ncc(-c4ccc([C@H]5CC[C@H](C(F)(F)F)CC5)cc4)cn3)cc2)C(=O)N2CC(C(=O)O)C2)s1` [Compound 1184], for which, under setting [1], the EC50 is under 800 nM.

For the molecule `CC[C@H]1CC[C@H](c2ccc(-c3ccc(-c4ccc(C[C@H](NC(=O)c5ccc(C(C)(C)C)s5)C(=O)O)cc4)cn3)cc2)CC1` [Compound 1335], the EC50 under setting [2] was in the range of 2500 to 5000 nM.

Turning to `CCCCCCCOc1ccc(-c2cnc(-c3ccc(C[C@H](NC(=O)c4cc(C)cs4)C(=O)O)cc3)nc2)cc1` [Compound 470], the EC50 under setting [1] was under 800 nM.

For the molecule `CCCCCCCOc1ccc2nc(-c3ccc(C[C@H](NC(=O)c4ccc(C(C)(C)C)cc4)C(=O)N[C@H](C)C(=O)O)cc3)ncc2c1` [Compound 809], the EC50 under setting [1] fell in the range of 800 to 2500 nM.

Turning to `CCCCCCCOc1ccc(-c2cnc(-c3ccc(C[C@H](NC(=O)c4ccc(C(C)(C)C)cc4)C(=O)NC(C(=O)O)c4cccs4)cc3)nc2)cc1` (stereo partly shown) [Compound 455], under setting [1], the concentration for a half-maximal effect (EC50) was under 800 nM.

On to `CCCCCCCOc1ccc(-c2cnc(-c3ccc(C[C@H](NC(=O)c4ccc(C(C)(C)C)s4)C(=O)N[C@H](C(=O)O)[C@@H](C)c4ccccc4)cc3)nc2)cc1` [Compound 909], for which the EC50 under setting [1] lay in the range of 2500 to 5000 nM.

Consider `CCC[C@H]1CC[C@H](C2CCN(c3cnc(-c4ccc(C[C@H](NC(=O)c5ccc(C(C)(C)C)s5)C(=O)NC(CCN)C(=O)O)cc4)nc3)CC2)CC1` (stereo partly shown) [Compound 1471], for which the half-maximal effective concentration (EC50) under setting [2] was under 800 nM.

`CCCCCCCOc1ccc2cc(-c3ccc(C[C@H](NC(=O)c4ccc(C(C)(C)C)cc4)C(=O)N[C@H](C)C(=O)O)cc3)ncc2c1` [Compound 808]: the half-maximal effective concentration (EC50) under setting [1] was in the range of 2500 to 5000 nM.

With `CCCCCCCOc1ccc(-c2cnc(-c3ccc(C[C@H](NC(=O)c4ccc(C(C)(C)C)cc4)C(=O)N[C@@H](CC(=O)O)C(=O)N(C)C)cc3)nc2)cc1` [Compound 503], the EC50 under setting [1] fell in the range of 800 to 2500 nM.

As to `CN(C)c1ccc(C2CCN(c3cnc(-c4ccc(CC(NC(=O)c5ccc(C(C)(C)C)s5)C(=O)N5CC(C(=O)O)C5)cc4)nc3)CC2)cc1` (stereo not shown) [Compound 1486], the concentration giving a half-maximal response (EC50) under setting [2] is 800 to 2500 nM.

For the molecule `CCCCCCCOc1ccc(-c2ccc(-c3ccc(C[C@H](NC(=O)c4ccc(C(C)(C)C)s4)C(=O)N[C@H](C)C(=O)O)cc3)nc2)cc1` [Compound 811], under setting [1], the concentration giving a half-maximal response (EC50) is 800 to 2500 nM.

Turning to `CCCCCCCOc1ccc(-c2cnc(-c3ccc(C[C@H](NC(=O)c4ccc(CC)cc4)C(=O)N[C@H](C)C(=O)O)cc3)nc2)cc1` [Compound 828], the EC50 under setting [1] was under 800 nM.

Take `CC(C)CCCOc1ccc(-c2cnc(-c3ccc(C[C@H](NC(=O)c4ccc(C(C)(C)C)s4)C(=O)NC(C(=O)O)C(O)c4ccccc4)cc3)nc2)cc1` (stereo partly shown) [Compound 924]: under setting [1], the concentration for a half-maximal effect (EC50) lay in the range of 2500 to 5000 nM.

In the case of `CCCCCCCOc1ccc(-c2cnc(-c3ccc(C[C@H](NC(=O)c4ccc(C(C)(C)C)s4)C(=O)N4CC[C@@H](N)C4)cc3)nc2)cc1` [Compound 987], under setting [1], the EC50 was in the range of 5000 to 10000 nM.

For the molecule `CCC[C@H]1CC[C@H](C2CCN(c3cnc(-c4ccc(C[C@H](NC(=O)c5ccc(C6CC6)cc5)C(=O)N5CC(C(=O)O)C5)cc4)nc3)CC2)CC1` [Compound 1520], the half-maximal effective concentration (EC50) under setting [2] was under 800 nM.

As for `CCCCCCCOc1ccc(-c2cnc(-c3ccc(C[C@H](NC(=O)c4ccc(C(C)C)s4)C(=O)N4CC[C@H](C(=O)O)C4)cc3)nc2)cc1` [Compound 845], the concentration giving a half-maximal response (EC50) under setting [1] is 2500 to 5000 nM.

Turning to `CCC[C@H]1CC[C@H](C2CCN(c3cnc(-c4ccc(CC(NC(=O)c5ccc(C(C)(C)C)s5)C(=O)NS(=O)(=O)CCOC)cc4)nc3)CC2)CC1` (stereo partly shown) [Compound 1540], the EC50 under setting [2] was under 800 nM.

Consider `CC(C)(C)c1ccc(C(=O)N[C@@H](Cc2ccc(-c3ncc(-c4ccc(C#Cc5ccccc5)cc4)cn3)cc2)C(=O)NCCC(=O)O)cc1` [Compound 689], for which the EC50 under setting [1] is 2500 to 5000 nM.

For `CC(C)(C)c1ccc(C(=O)N[C@@H](Cc2ccc(-c3ncc(N4CCC(c5ccccc5)CC4)cn3)cc2)C(=O)N2CC(C(=O)O)C2)s1` [Compound 1426], the EC50 under setting [2] lay within 800 to 2500 nM.

Take `CCCCCCCOc1ccc(-c2cnc(-c3ccc(C[C@H](NC(=O)c4ccc(CCCC)cc4)C(=O)N[C@H](C)C(=O)O)cc3)nc2)cc1` [Compound 821]: the EC50 under setting [1] was in the range of 800 to 2500 nM.

With `CC(C)(C)c1ccc(C(=O)N[C@@H](Cc2ccc(-c3ncc(N4CCC(c5cccc(Br)c5)CC4)cn3)cc2)C(=O)N2CC(C(=O)O)C2)s1` [Compound 1488], the EC50 under setting [2] lay in the range of 800 to 2500 nM.

Consider `CCCCCCCOc1ccc(-c2cnc(-c3ccc(C[C@H](NC(=O)c4ccc(CC)s4)C(=O)N4CCC[C@H]4C(=O)O)cc3)nc2)cc1` [Compound 1072], for which the EC50 under setting [1] was in the range of 800 to 2500 nM.

As for `CCCCCCCOc1ccc(-c2cnc(-c3ccc(CC(NC(=O)c4ccc(C(C)(C)C)s4)C(=O)NCCCCCC(=O)O)cc3)nc2)cc1` (stereo not shown) [Compound 460], under setting [1], the EC50 lay in the range of 5000 to 10000 nM.

Turning to `CCCOc1ccc(-c2cnc(-c3ccc(C[C@H](NC(=O)c4ccc(C(C)(C)C)s4)C(=O)N4CC(C(=O)O)C4)cc3)nc2)cc1` [Compound 785], the EC50 under setting [1] fell in the range of 2500 to 5000 nM.

On to `C[C@@H](NC(=O)[C@H](Cc1ccc(-c2ncc(-c3ccc(OCC(C)(C)C)cc3)cn2)cc1)NC(=O)c1ccc(C(C)(C)C)cc1)C(=O)O` [Compound 726], for which the EC50 under setting [1] lay within 800 to 2500 nM.

Regarding `CCC[C@H]1CC[C@H](C2CCN(c3cnc(-c4ccc(CC(NC(=O)c5ccc(C(C)(C)C)s5)C(=O)NS(=O)(=O)C(C)(C)C)cc4)nc3)CC2)CC1` (stereo partly shown) [Compound 1546], under setting [2], the 50% effective concentration (EC50) is under 800 nM.

Turning to `CCC[C@H]1CC[C@H](C2CCN(c3cnc(-c4ccc(C[C@H](NC(=O)c5ccc(C)s5)C(=O)N5CC(C(=O)O)C5)cc4)nc3)CC2)CC1` [Compound 1530], under setting [2], the EC50 was in the range of 800 to 2500 nM.

Consider `CC(C)Oc1cc(-c2cnc(-c3ccc(C[C@H](NC(=O)c4ccc(C(C)(C)C)s4)C(=O)N[C@H](C)C(=O)O)cc3)nc2)ccc1OC(F)(F)F` [Compound 1013], for which the EC50 under setting [1] fell in the range of 5000 to 10000 nM.

As for `CCCCCCCOc1ccc2nc(-c3ccc(C[C@H](NC(=O)c4ccc(C(C)(C)C)cc4)C(=O)O)cc3)ccc2c1` [Compound 671, (S)-2-(4-(tert-butyl)benzamido)-3-(4-(6-(heptyloxy)quinolin-2-yl)phenyl)propanoic acid], the EC50 under setting [1] lay within 2500 to 5000 nM.

Consider `Cc1cccc(-c2noc(-c3cnc(-c4ccc(C[C@H](NC(=O)c5ccc(C(C)(C)C)cc5)C(=O)NCCC(=O)O)cc4)nc3)n2)c1` [Compound 750], for which the EC50 under setting [1] lay in the range of 2500 to 5000 nM.

Take `CCCCCCCOc1ccc(-c2cnc(-c3ccc(C[C@H](NC(=O)c4ccc(C(C)(C)C)s4)C(=O)N[C@@H](C(=O)O)C4CC4)cc3)nc2)cc1` [Compound 404]: the EC50 under setting [1] was under 800 nM.

In the case of `CCCC(C)Oc1ccc(-c2ccc(-c3cnc(-c4ccc(C[C@H](NC(=O)c5ccc(C(C)(C)C)s5)C(=O)N[C@H](C)C(=O)O)cc4)nc3)cc2)cc1` (stereo partly shown) [Compound 1296], the concentration for a half-maximal effect (EC50) under setting [2] lay within 2500 to 5000 nM.

In the case of `Cc1cc(-c2ccc(-c3cnc(-c4ccc(C[C@H](NC(=O)c5ccc(C(C)(C)C)s5)C(=O)N[C@H](C)C(=O)O)cc4)nc3)c(F)c2)ccc1OC(F)(F)F` [Compound 1175], the EC50 under setting [1] was under 800 nM.

Turning to `CC(C)(C)c1ccc(C(=O)N[C@@H](Cc2ccc(-c3ncc(-c4ccc(-c5cccc(Cl)c5)cc4F)cn3)cc2)C(=O)N2CC(C(=O)O)C2)s1` [Compound 1192], the concentration for a half-maximal effect (EC50) under setting [1] is under 800 nM.

As to `CCCCCOc1ccc(-c2cnc(-c3ccc(C[C@H](NC(=O)c4ccc(C(C)(C)C)s4)C(=O)N[C@H](C)C(=O)O)cc3)nc2)cc1` [Compound 734], under setting [1], the concentration giving a half-maximal response (EC50) lay in the range of 800 to 2500 nM.

Consider `CCCCCCCOc1ccc(-c2cnc(-c3ccc(C[C@H](NC(=O)c4ccc(C(C)(C)C)s4)C(=O)N4CCC[C@H]4C(=O)O)cc3)nc2)cc1` [Compound 328, (S)-1-((S)-2-(5-(tert-butyl)thiophene-2-carboxamido)-3-(4-(5-(4-(heptyloxy)-phenyl)pyrimidin-2-yl)phenyl)propanoyl)pyrrolidine-2-carboxylic acid], for which, under setting [1], the concentration giving a half-maximal response (EC50) was under 800 nM.

For the molecule `CCCCCCCOc1ccc(-c2cnc(-c3ccc(C[C@H](NC(=O)c4ccc(C(C)(C)C)s4)C(=O)NCC(=O)NCC(=O)O)cc3)nc2)cc1` [Compound 486], the EC50 under setting [1] is under 800 nM.
